Results taken from ChEMBL document CHEMBL5346950, “Development of Biaryl-Containing Aldo-Keto Reductase 1C3 (AKR1C3) Inhibitors for Reversing AKR1C3-Mediated Drug Resistance in Cancer Treatment” (J Med Chem, 2023).

Assays:
MCF7 [1] = experiment: Synergistic antiproliferative activity against human MCF7 cells overexpressing AKR1C3 assessed as combination index at 10 uM incubated for 72 hrs in presence of doxorubicin at 100 nM by Chou-Talalay method; type: functional
[2] = target: Aldo-keto reductase family 1 member B10 (Homo sapiens, UniProt O60218); experiment: Inhibition of AKR1B10 (unknown origin) transfected in Escherichia coli BL21 (DE3) pLysS competent cells using pyridine-3-aldehyde as substrate assessed as inhibition of NADP+ dependent substrate oxidation incubated for 10 mins
[3] = AUC (0 to t) in Sprague-Dawley rat at 10 mg/kg, IG measured for 5760 mins by LC-MS/MS analysis; type: ADME, organism-based; parameters: time 5760 min, dose 10 mg/kg, route ig; details: in vivo, po
[4] = Cmax in Sprague-Dawley rat at 10 mg/kg, IG measured for 5760 mins by LC-MS/MS analysis; type: ADME, organism-based; parameters: dose 10 mg/kg, time 5760 min, route ig; details: in vivo, po
[5] = Toxicity in BALB/c nude mouse xenografted with human MCF7 cells expressing AKR1C3 assessed as histopathological changes in lungs at 10 mg/kg, po administered every 2 days for 3 weeks in presence of doxorubicin by H and E staining based analysis; type: organism-based; details: in vivo, 504 h
MCF7 [6] = experiment: Synergistic antiproliferative activity against human MCF7 cells overexpressing AKR1C3 assessed as combination index at 25 uM incubated for 72 hrs in presence of doxorubicin at 50 nM by Chou-Talalay method; type: functional
MCF7 [7] = experiment: Synergistic antiproliferative activity against human MCF7 cells overexpressing AKR1C3 assessed as dose reduction index for doxorubicin at 25 uM incubated for 72 hrs in presence of doxorubicin at 100 nM by Chou-Talalay method; type: functional
[8] = AUC (0 to t) in Sprague-Dawley rat at 2 mg/kg, iv measured for 5760 mins by LC-MS/MS analysis; type: ADME, organism-based; parameters: dose 2 mg/kg, time 5760 min, route iv; details: in vivo
[9] = Toxicity in BALB/c nude mouse xenografted with human MCF7 cells expressing AKR1C3 assessed as histopathological changes in kidney at 10 mg/kg, po administered every 2 days for 3 weeks in presence of doxorubicin by H and E staining based analysis; type: organism-based; details: in vivo, 504 h
[10] = Toxicity in BALB/c nude mouse xenografted with human MCF7 cells expressing AKR1C3 assessed as histopathological changes in kidneys at 10 mg/kg, po administered every 2 days for 3 weeks by H and E staining based analysis; type: organism-based; details: in vivo, 504 h
MCF7 [11] = experiment: Synergistic antiproliferative activity against human MCF7 cells overexpressing AKR1C3 assessed as dose reduction index for doxorubicin at 50 uM incubated for 72 hrs in presence of doxorubicin at 100 nM by Chou-Talalay method; type: functional
MCF7 [12] = experiment: Synergistic antiproliferative activity against human MCF7 cells overexpressing AKR1C3 assessed as combination index at 25 uM incubated for 72 hrs in presence of doxorubicin at 100 nM by Chou-Talalay method; type: functional

Chain of Aldo-keto reductase family 1 member B10 (O60218 whole entry): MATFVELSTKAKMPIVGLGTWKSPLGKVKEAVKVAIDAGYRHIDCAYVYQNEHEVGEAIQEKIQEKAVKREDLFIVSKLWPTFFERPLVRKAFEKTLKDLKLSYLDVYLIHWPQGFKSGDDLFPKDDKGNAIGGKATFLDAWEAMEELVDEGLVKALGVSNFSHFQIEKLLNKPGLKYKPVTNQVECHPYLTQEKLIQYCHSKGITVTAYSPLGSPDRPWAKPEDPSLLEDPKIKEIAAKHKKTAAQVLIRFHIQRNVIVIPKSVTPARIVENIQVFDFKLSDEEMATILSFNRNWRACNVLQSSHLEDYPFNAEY

## O=C(O)C1(c2ccc(-c3cc(Cl)cc(Cl)c3)c(F)c2)CC1
MCF7 [1]
  CI: 0.326
[2]
  IC50: > 10 µM
[3]
  AUC(0-t) at 96 h: 1480 ng·h/mL
[4]
  Cmax: 45500 ng/mL
[5]
  Activity: Non-Toxic
MCF7 [6]
  CI: 0.277
MCF7 [7]
  Activity_index: 5.813
[8]
  AUC(0-t) at 96 h: 552 ng·h/mL
[9]
  Activity: Non-Toxic
[10]
  Activity: Non-Toxic
MCF7 [11]
  Activity_index: 15.324
MCF7 [12]
  CI: 0.351
